# Test: Plasma pharmacokinetics after single oral dose of Δ8-THCV in MCT oil (LC-MS/MS, non-compartmental analysis)
# Type: in vivo, human
# Set-up: Clast (last quantifiable concentration): unit not given here
# Conditions: for Clast (last quantifiable concentration) / tlast (time to last quantifiable concentration) / concentration at 0.5 h / concentration at 1 h / concentration at 2 h / concentration at 4 h / concentration at 6 h / concentration at 8 h: plasma; for plasma concentration: Predose; for concentration at 0.5 h / concentration at 1 h / concentration at 2 h / concentration at 4 h / concentration at 6 h / concentration at 8 h: human, oral
# Procedure: The study was a two-phase, dose-ranging, placebo-controlled trial in 21 healthy participants to assess the safety, tolerability, PK, and PD of an oral formulation of Δ8-THCV. A detailed description of the study was published elsewhere. The study product was a medium-chain triglyceride (MCT) oil oral formulation of Δ8-THCV at a concentration of 50 mg/mL. […] MCT oil was used as placebo.
# Twenty-one participants were enrolled in the clinical study and plasma samples from 15 participants were sent to our laboratory for pharmacokinetic evaluation. Of these, 3 participants were enrolled in Phase 1, an unblinded, placebo-controlled, single ascending dose design and 12 were enrolled in Phase 2, a double-blind, randomized, placebo-controlled, within-participant crossover design. At each study session, participants received one of the following oral doses: placebo, 12.5 mg, 25 mg, 50 mg, 100 mg, and 200 mg of the aforementioned Δ8-THCV formulation in MCT. Study visits were separated by a washout period of a minimum of one week and maximum of 28 days. Participants entered the research facility the night before the session and received the study product in the morning after a standardized high-fat, high-calorie breakfast. PK blood samples included in this analysis were collected prior to dosing and 0.5, 1, 2, 4, 6, and 8 h after dose. Immediately following collection into K2EDTA tubes, blood samples were placed on wet ice, centrifuged, and plasma was immediately frozen at −80 °C until shipment to the bioanalytical laboratory (iC42 Clinical Research and Development, University of Colorado, Aurora, CO, USA) on dry ice.
# Plasma samples were analyzed using a validated high-performance liquid chromatography–tandem mass spectrometry (LC-MS/MS) assay. The assay included Δ8-THCV and its main metabolites 11-OH-Δ8-THCV and Δ8-THCV-COOH, Δ9-THCV and its main metabolite Δ9-THCV-COOH, and Δ9-THC and Δ8-THC as well as their main metabolites (Figure 3). The complete list of analyzed compounds and a summary of the key performance parameters of the assay are presented in Appendix A and Table A1 and Table A2. […] For the PK analysis, concentrations below the lower limit of quantification were set to 0 ng/mL. PK parameters were calculated using non-compartmental analysis (Phoenix WinNonlin version 8.4., Certara, Princeton, NJ, USA). Statistical analysis was carried out using GraphPad Prism (version 10, Boston, MA, USA).
# [1] = 12.5 mg single oral Δ8-THCV in MCT oil, Mean (±SD)
# [2] = 12.5 mg single oral Δ8-THCV in MCT oil, Median (Range)
# [3] = 25 mg single oral Δ8-THCV in MCT oil, Mean (±SD)
# [4] = 25 mg single oral Δ8-THCV in MCT oil, Median (Range)
# [5] = 50 mg single oral Δ8-THCV in MCT oil, Mean (±SD)
# [6] = 50 mg single oral Δ8-THCV in MCT oil, Median (Range)
# [7] = 100 mg single oral Δ8-THCV in MCT oil, Mean (±SD)
# [8] = 100 mg single oral Δ8-THCV in MCT oil, Median (Range)
# [9] = 200 mg single oral Δ8-THCV in MCT oil, Mean (±SD)
# [10] = 200 mg single oral Δ8-THCV in MCT oil, Median (Range)
# [11] = 12.5 mg, 12.5 mg Δ8-THCV dose, Mean (SD, %CV)
# [12] = 12.5 mg, 12.5 mg Δ8-THCV dose, Median (IQ Range)
# [13] = 25 mg, 25 mg Δ8-THCV dose, Mean (SD, %CV)
# [14] = 25 mg, 25 mg Δ8-THCV dose, Median (IQ Range)
# [15] = 50 mg, 50 mg Δ8-THCV dose, Mean (SD, %CV)
# [16] = 50 mg, 50 mg Δ8-THCV dose, Median (IQ Range)
smiles,measurement,setting,value
"CCCc1cc(O)c2c(c1)OC(C)(C)[C@@H]1CC=C(C(=O)O)C[C@@H]21 [Δ8-THCV-COOH, 11-nor-9-carboxy-Δ8-THCV]",Clast (last quantifiable concentration),[1],46.8 (±23)
same,tlast (time to last quantifiable concentration),[1],8 (±0)
same,Clast (last quantifiable concentration),[2],38.2 (20.1–102)
same,tlast (time to last quantifiable concentration),[2],8 (8–8)
same,Clast (last quantifiable concentration),[3],71.6 (±33.8)
same,tlast (time to last quantifiable concentration),[3],8 (±0)
same,Clast (last quantifiable concentration),[4],78.3 (25.5–146)
same,tlast (time to last quantifiable concentration),[4],8 (8–8)
same,Clast (last quantifiable concentration),[5],166 (±60.3)
same,tlast (time to last quantifiable concentration),[5],8 (±0)
same,Clast (last quantifiable concentration),[6],148 (78.9–264)
same,tlast (time to last quantifiable concentration),[6],8 (8–8)
same,Clast (last quantifiable concentration),[7],319 (±118)
same,tlast (time to last quantifiable concentration),[7],8 (±0)
same,Clast (last quantifiable concentration),[8],304 (153–590)
same,tlast (time to last quantifiable concentration),[8],8 (8–8)
same,Clast (last quantifiable concentration),[9],917 (±582)
same,tlast (time to last quantifiable concentration),[9],8 (±0)
same,Clast (last quantifiable concentration),[10],855 (364–2402)
same,tlast (time to last quantifiable concentration),[10],8 (8–8)
same,plasma concentration,"12.5 mg Δ8-THCV dose, Mean (SD, %CV)","0.2 (±0.4, 267) ng/mL"
same,plasma concentration,"12.5 mg Δ8-THCV dose, Median (IQ Range)",0 (0–0) ng/mL
same,plasma concentration,"25 mg Δ8-THCV dose, Mean (SD, %CV)","0.3 (±1, 374) ng/mL"
same,plasma concentration,"25 mg Δ8-THCV dose, Median (IQ Range)",0 (0–0) ng/mL
same,plasma concentration,"50 mg Δ8-THCV dose, Mean (SD, %CV)","0.8 (±1.6, 187) ng/mL"
same,plasma concentration,"50 mg Δ8-THCV dose, Median (IQ Range)",0 (0–0.9) ng/mL
same,plasma concentration,"100 mg Δ8-THCV dose, Mean (SD, %CV)","0.5 (±0.8, 166) ng/mL"
same,plasma concentration,"100 mg Δ8-THCV dose, Median (IQ Range)",0 (0–1) ng/mL
same,plasma concentration,"200 mg Δ8-THCV dose, Mean (SD, %CV)","0.1 (±0.3, 387) ng/mL"
same,plasma concentration,"200 mg Δ8-THCV dose, Median (IQ Range)",0 (0–0) ng/mL
same,median AUClast ratio Δ8-THCV-COOH/Δ8-THCV/11-OH-Δ8-THCV,"after the 200 mg dose, Δ8-THCV = 1",36
same,concentration at 0.5 h,[11],0.4 ng/mL
same,concentration at 0.5 h,[12],0 ng/mL
same,concentration at 1 h,[11],15 ng/mL
same,concentration at 1 h,[12],3 ng/mL
same,concentration at 2 h,[11],30.1 ng/mL
same,concentration at 2 h,[12],15.5 ng/mL
same,concentration at 4 h,[11],84.6 ng/mL
same,concentration at 4 h,[12],73.1 ng/mL
same,concentration at 6 h,[11],62.2 ng/mL
same,concentration at 6 h,[12],53.3 ng/mL
same,concentration at 8 h,[11],46.8 ng/mL
same,concentration at 8 h,[12],38.2 ng/mL
same,concentration at 0.5 h,[13],2.7 ng/mL
same,concentration at 0.5 h,[14],0 ng/mL
same,concentration at 1 h,[13],28.5 ng/mL
same,concentration at 1 h,[14],7.1 ng/mL
same,concentration at 2 h,[13],54.6 ng/mL
same,concentration at 2 h,[14],55.6 ng/mL
same,concentration at 4 h,[13],136 ng/mL
same,concentration at 4 h,[14],108 ng/mL
same,concentration at 6 h,[13],96.3 ng/mL
same,concentration at 6 h,[14],82.6 ng/mL
same,concentration at 8 h,[13],71.6 ng/mL
same,concentration at 8 h,[14],78.3 ng/mL
same,concentration at 0.5 h,[15],4.7 ng/mL
same,concentration at 0.5 h,[16],1.3 ng/mL
same,concentration at 1 h,[15],27.3 ng/mL
same,concentration at 1 h,[16],4.8 ng/mL
same,concentration at 2 h,[15],84.1 ng/mL
same,concentration at 2 h,[16],26.5 ng/mL
same,concentration at 4 h,[15],214 ng/mL
same,concentration at 4 h,[16],177 ng/mL
same,concentration at 6 h,[15],233 ng/mL
same,concentration at 6 h,[16],200 ng/mL
same,concentration at 8 h,[15],166 ng/mL
same,concentration at 8 h,[16],148 ng/mL
same,concentration at 0.5 h,"100 mg, 100 mg Δ8-THCV dose, Mean (SD, %CV)",13 ng/mL

# Source: publication PMC11676667, “Pharmacokinetics of Oral Cannabinoid Δ8-Tetrahydrocannabivarin and Its Main Metabolites in Healthy Participants” (Pharmaceuticals, 2024)
